Data reported in the NIST ThermoML archive (doi:10.1021/acs.jced.5b00412).

Details: 101.3 kPa, Liquid, Vibrating tube method

NCCCO [3-amino-1-propanol]
Details	mass density [kg/m3]
293.15 K	987.5
298.15 K	983.6
303.15 K	979.6
308.15 K	975.5
313.15 K	971.5
318.15 K	967.5
323.15 K	963.4
328.15 K	959.3
333.15 K	955.8
338.15 K	951.7
343.15 K	947.6
348.15 K	943.5
353.15 K	939.3
